Reference: patent US8017649B2, “Flavonoid compounds and uses thereof” (Howard Florey Institute of Experimental Physiology and …, priority 2005, dated 2011)
“Also recorded” adds a separate entry of the source.

How the values were obtained:
[1] = tested on: endothelium intact aortic rings; assay: Ca2+-induced contraction of rat aortic rings in Ca2+-free high-K+ solution; type: cell-based
Experimental: To determine the effect of flavonoids on responses to the influx of extracellular Ca^2+, contractile responses to exogenous application of Ca^2+ were examined in the presence of flavonoids in Ca^2+-free high-K^+ solution (60 mM, KPSS). Aortic rings were initially equilibrated at a resting tension of 1 g in normal Ca^2+-free PSS for 45 minutes. The bath medium was then replaced with Ca^2+-free KPSS for 45 minutes to determine a reference contraction to Ca^2+ (3×10^−3 M). Following a 30 minute re-equilibration period with Ca^2+-free PSS, the cumulative contractile responses to Ca^2+ (10^−5−3×10^−3 M) were determined in KPSS in the presence of a range of concentrations (10^−8-10^−4 M) of vehicle, 3′,4′-dihydroxyflavonol, 3-hydroxyflavone-3-hemiadipate, 3′,4′-dihydroxy-3-hemiadipate, 3-hydroxyflavone-3-phosphate. A 20 minute incubation period was allowed for the flavonoids before examining the responses to Ca^2+.
To determine the effect of flavonoids on responses to the influx of extracellular Ca^2+, contractile responses to exogenous application of Ca^2+ were examined in the presence of flavonoids in Ca^2+-free high-K^+ solution (60 mM, K+-PSS). Aortic rings were initially equilibrated at a resting tension of 1 g in Ca^2+-free PSS for 45 minutes. The bath medium was then replaced with Ca^2+-free K+-PSS for 45 minutes to determine a reference contraction to added Ca^2+ (3 mM). Following a 30 minute re-equilibration period with Ca^2+-free PSS, the cumulative contractile responses to Ca^2+ (10^−5−3×10^−3 M) were determined in K^+ PSS in the presence of vehicle (0.1% DMSO), or a range of concentrations (10^−7-10^−4 M) of 3′-hydroxyflavonol, F3HA, DiOHF3HA or F3P. A 20 minute incubation period was allowed for the flavonoids before examining the responses to Ca^2+. Experiments were conducted in the presence and absence of BuCHE (1000 U/L) to cleave the adipate in F3HA and DiOHF3HA. In experiments using F3P, phosphatase (1000 U/L) was used in some experiments to cleave the phosphate.

[2] = tested on: aortic rings; assay: Effect on SNP relaxation of precontracted rat aortic rings; type: cell-based; conditions: in the presence of BuCHE or phosphatase
Experimental: (§1) After wash out and re-equilibration for 30 min, the aortic rings were then submaximally precontracted with PE and U46619, which were used to produce an active tension of 45-60% of the KPSS-induced maximum contraction. When investigating the effects of the flavonoids, flavonol, flavone-3-hemiadipate (F3HA), 3′, 4′-dihydroxyflavone, 3′,4′-dihydroxyflavonol, 3′,4′-dihydroxyflavone-3-hemiadipate (DiOHF3HA), and flavone-3-phosphate (F3P) on vasorelaxant responses, rings were incubated with one of the compounds for 20 mins before they were precontracted submaximally, followed by a cumulative-concentration response curve to ACh (100 nM-10 μM) or SNP ([…]). In experiments using F3P 1000U/L phosphatase was used in some experiments to cleave the phosphate. Some experiments were conducted in the presence and absence of butyryl cholinesterase (BuCHE, 1000 U/L) to cleave the adipate in DiOHF3HA and F3HA.

[3] = tested on: endothelium intact aortic rings; assay: Effect on ACh relaxation of precontracted rat aortic rings; type: cell-based; conditions: for Rmax of ACh relaxation: n=5
Experimental: as §1

[4] = tested on: superoxide anions generated in rat aorta; assay: Superoxide anion production in rat isolated aortic segments (lucigenin chemiluminescence, NADPH); type: cell-based; conditions: disodium salt
Experimental: Superoxide anion production in rat isolated aortic segments was determined using lucigenin chemiluminescence. Aortic rings were prepared as described above and then placed in ice-cold Krebs-(N-[2-Hydroxyethyl]piperazine-N′-[2-ethanesulfonic acid] (HEPES buffer) (composition (mM); NaCl 99.0, KCl 4.7, KH2PO4 1.0, MgSO4·7H2O 1.2, D-glucose 11.0, NaHCO3 25.0, CaCl2·2H2O 2.5, Na-HEPES 20.0). Aortic rings were pre-incubated for 45 minutes at 37° C. with a pH 7.4, in Krebs-HEPES buffer containing diethylthiocarbamic acid (DETCA, 10^−3 M) to inactivate superoxide dismutase and β-nicotinamide adenine dinucleotide phosphate (NADPH, 10^−4 M) as a substrate for NADPH oxidase and either 3′,4′-dihydroxyflavonol (10^−4 M) as a positive control, vehicle, 3-hydroxyflavone-3-hemiadipate, 3′,4′-dihydroxy-3-hemiadipate, 3-hydroxyflavone-3-phosphate (10^−8-10^−4 M). Background photon emission was measured for 12 cycles in a 96-well Optiplate containing 0.3 ml per well of Krebs-HEPES buffer together with lucigenin (5×10^−5 M) and vehicle or flavonoid (10^−8-10^−4 M). Each cycle was counted every one minute. After background reading was completed the incubated aortic rings were transferred to the appropriate wells and photon emission was recounted as described above. The tissue was then placed in a 65° C. oven for 48 hours to allow superoxide production to be normalised to dry tissue weight.
The effects of vehicle, 3′,4′-dihydroxyflavone-3-hemiadipate (21) (DiOHF3HA, 10^−8 M-10^−4 M) and DiOHF (10^−4 M) in the presence and absence of Butyryl cholinesterase (BuCHE), 100, 300 and 1000 U/L) on the level of superoxide anions generated in rat isolated aortic segments in the presence of NADPH was expressed as a percentage of control. The method used was as described above except for the addition of the butyryl cholinesterase.
The effect of vehicle, 3-hydroxyflavone-3-phosphate (10^−8 to 10^−4 M) in the presence or absence of phosphatase (1000 U/L) on the level of superoxide anions generated in rat aorta in the presence of NADPH expressed as a percentage of control was determined as described above for the 3′,4′-dihydroxyflavone-3-hemiadipate.

[5] = tested on: endothelium-intact aortic rings treated with pyrogallol; assay: Vasorelaxation to ACh in the presence of oxidative stress (pyrogallol); type: cell-based, rat; conditions: pyrogallol 2×10^−5 M, F3P plus phosphatase; disodium salt
Experimental: Control cumulative relaxation responses to ACh were compared with those obtained from endothelium-intact aortic rings treated with pyrogallol (2×10^−5 M). The effects of vehicle (0.1% DMSO), phosphatase (1000 U/L) or F3P (10^−6-10^−4 M) on responses to ACh in the rat isolated aortic rings exposed to pyrogallol (2×10^−5 M) were also determined. Pyrogallol was added when the aortic rings had reached a stable level of contraction with PE and U44619 at a level between 50 and 70% of KPSS-induced tension and 10 minutes was allowed before determining the cumulative concentration-response curves to ACh. In some experiments using F3P 1000 U/L phosphatase was used to cleave the phosphate.

[6] = tested on: anaesthetised rats; assay: Arterial pressure and heart rate in anaesthetised rats after intravenous injection; type: in vivo, rat; conditions: intravenous, anaesthetised rats; disodium salt
Experimental: A unit dosage of an aqueous solution of 3-hydroxyflavone-3-hemiadipate (15) was administered to a group of male anesthetized Sprague Dawley rats intravenously and the blood pressure monitored over a period of time.
Male Sprague-Dawley rats (250-350 g) were anaesthetised with pentobarbitone sodium (60 mg kg^−1, ip). The trachea was isolated and cannulated with polyethylene tracheal tube (I.D. 2.0 mm), and the rat was allowed to breathe spontaneously.
The right carotid artery was cannulated and connected with a heparinised saline filled cannula (O.D. 0.75, I.D, 0.58 mm) and connected to a pressure transducer. Mean and phasic arterial pressure were continuously measured and recorded on a polygraph. The heart rate, was derived from the phasic arterial pressure using a tachometer.
DiOHF3HA ([…]) was injected intravenously, allowing at least 30 min between injections, and the peak changes in mean arterial pressure and heart rate measured. […] In a separate group of experiments ACh (0.3 mg/kg iv) and phenylephrine (PE, […]) were injected before and 30 minutes after DiOHF3HA (3 mg/kg iv), a time when arterial pressure and heart rate had returned to control levels. […]

## O=c1c(OP(=O)([O-])[O-])c(-c2ccccc2)oc2ccccc12.[Na+].[Na+] [F3P, 3-Hydroxyflavone-3-phosphate disodium salt]
[1]; alone, highest concentration 10^−4 M
  effect on Ca^2+-induced contraction: partial inhibition of the calcium-induced contraction
[1]; alone, over the concentration range tested
  effect on Ca^2+-induced contraction: small inhibition of calcium-induced contraction
[1]; in the presence of BuCHE or phosphatase (1000 U/L), listed as flavone-3-phosphate, disodium salt
  effect on Ca^2+-induced contraction: markedly enhanced the inhibitory effects
[2]
  effect on relaxant response to SNP: not SNP
[3]; F3P 10^−4 M + phosphatase
  Rmax of ACh relaxation: 100 ± 1
[3]; F3P 10^−5 M + phosphatase
  Rmax of ACh relaxation: 100 ± 1
[3]; in the presence of phosphatase, disodium salt
  effect on relaxant response to ACh: enhanced; also recorded: increased the sensitivity of rat aortic rings to relaxation by ACh
[4]; in the presence of cleaving enzyme (BuCHE for hemiadipates, phosphatase for phosphate, 1000 U/L)
  effect on superoxide generation: concentration-dependent inhibition of superoxide levels; also recorded: inhibit superoxide levels produced by rat aorta
[4]; in the presence of cleaving enzyme (BuCHE for hemiadipates, phosphatase for phosphate, 1000 U/L), listed as flavone-3-phosphate
  effect on superoxide generation: concentration dependent decrease in the levels of superoxide
[4]; substance alone, no added esterase/phosphatase, up to 10^−4 M, NADPH
  effect on superoxide generation: no effect on superoxide generation; also recorded: no antioxidant or vascular activity
[4]; substance alone, no added esterase/phosphatase, up to 10^−4 M, NADPH, listed as 3-hydroxyflavone-3-phosphate
  effect on superoxide generation: measurable effect on the superoxide anion generation
[5]
  maximum response to ACh under oxidant stress: the response was restored; also recorded: enhance endothelium-dependent relaxation in the presence of oxidant stress
[6]
  change in heart rate (HR): dose-dependent decrease in HR; also recorded: only small concentration dependent decreases
  change in mean arterial pressure (MAP): dose-dependent decreases in MAP; also recorded: only small concentration dependent decreases
